Tested on: active dry yeast “z”
Test: Individual nutritive elements added to normal gravity corn mash: fermentation rate and viable cell numbers
Format: cell-based, Saccharomyces cerevisiae
Procedure: Normal gravity corn mash was prepared using ground #2 yellow dent corn obtained from Commercial Alcohols Inc. (275 Bloomfield Road, Chatham, Ontario, Canada N7M 5J5). […] One part by weight of ground corn was dispersed into three parts of 50° C., sterile dH2O containing 1 mM CaCl2.2H2O. To minimize the development of excessive viscosity during gelatinization, 1.25 mL of high temperature (HT-2X) α-amylase such as was supplied by Alltech Inc. in Nicholasville, Ky., USA (HT-2X α-amylase is no longer available from Alltech), was added per litre of mash as the ground corn was dispersed. It should be noted that if Ca-independent alpha amylases are used such as Termamyl® SC supplied by Novozymes North America in Franklinton, N.C., USA, then the 1 mM CaCl2.2H2O is not required. Following the addition of the ground corn and a five-minute mixing period to produce a homogenous mixture, the temperature was increased until the mash reached 94° C. where it was held at this temperature for 60 min with continued stirring. The temperature of the gelatinized starch was then reduced to 80° C. and liquefied by a second dose of HT-2X αx-amylase (1.25 mL/L) with continued stirring for 30 min. Sterile Celstir® (Wheaton Scientific, Millville, N.J.) fermentor vessels were filled with 1 L aliquots of this mash. To each fermentor vessel, filter-sterilized (25 mm, 0.2 μm Acrodisc® syringe filter, Pall Corporation, Ann Arbor, Mich.) urea (Fisher Scientific, Co., NJ), was added to achieve a final concentration of 8 mM. Cold-sterilization of the mash was assured by the addition of 100 μL of diethyl pyrocarbonate (DEPC, Sigma Chemical Co.) per litre of mash mixing the mash mechanically (IKA-Labortechnik, Staufen, Germany) for 5-10 min followed by cooling the fermentor vessels at 4° C. cold room for ˜72 hrs. The fermentor vessels were then removed from the cold room, connected to 30° C. water bath circulators and mixed. Glucoamylase in the form of Allcholase II 400 supplied by Alltech Inc. was then added (1.5 mL/L mash) 30 min prior to yeast inoculation to initiate saccharification of the dextrins formed during gelatinization and liquefaction (it should be noted that Allcholase II 400 is no longer available and any glucoamylase may be used). The mash thus prepared contained 19-20 g of dissolved solids/100 mL of mash as determined by a digital density meter analyzer (model DMA-45, Anton Paar KG, Graz, Austria) maintained at 20° C.
Eleven grams of a commercially available active dry yeast, designated as “z”, were rehydrated by dispersal in 99 mL of preheated 38° C., 0.1% (w/v) sterile water and incubation for 20 min with periodic shaking in a 38° C. water bath. Fermentor vessels containing normal density corn mash were prepared as described above and inoculated with sufficient active yeast to provide an initial viable cell count of 1×10^7 cells per mL mash. The optimal fermentation temperature for the active dry yeast “z” was determined by conducting fermentations at 30°, 34°, 36°, 38°, and 40° C.
The effects of individual elements on yeast cell biomass production and fermentation in a fermentation feedstock were assessed by separately supplementing of corn mash with nitrogen, phosphorus, magnesium, sulphur and zinc. Nitrogen effects were assessed in corn mashes by the additions of urea to provide final concentrations in the mash of […]. Phosphorus effects were assessed in corn mashes amended with 16 mM urea, by the additions of (NH4)2HPO4 (BDH Chemicals Inc, Toronto, Ont., MW: 132.06) to provide final concentrations of 0, 0.1, 0.2, 0.4, 0.6, and 0.8 g of (NH4)2HPO4/L of mash. Magnesium effects were assessed in corn mashes amended with 16 mM urea, by the additions of MgSO4.7H2O (BDH Chemicals Inc., MW. 246.48) to provide final concentrations of 0, 0.025, 0.049, 0.074, 0.099, 0.148, 0.197 g of MgSO4.7H2O/L of mash. […]

Compound: NC(N)=O [urea]
- highest yeast cell counts (corn mash with 8 mM and 16 mM urea): 3.3×10^8 CFU/mL
- increase of cell numbers (corn mash with 8 mM and 16 mM urea, versus no urea): 50%
- increase of the rate of dissolved solids utilization (urea 16-32 mM in corn mash, 30° C.): approximately 2 fold
- urea supplementation rate at which the maximum fermentation rate was observed (urea tested up to 32 mM): 16 mM

Source: patent US20070190628A1, “Yeast food composition for fuel ethanol production” (priority 2006, published 2007)
